Series [1] is described as follows: drug saturated solubility in water. Type of series: physicochemical.
For series [2] the following is noted: PLGA microspheres, subcutaneous injection, 50 mg/rabbit; cited from earlier work.
Series [3] can be described thus: oil-in-water coefficient (logP) of nalbuphine and pro-soft drugs. Type of series: physicochemical.

Consider 5 molecules from patent US20140112957A1, “Analegisic (Sebacoyl dinalbuphine ester) PLGA controlled release formulation form” (OLIVER YAO-PU HU, priority 2012, published 2014).

Each structure is given as a SMILES string.

In turn, `CCCCCCCCCC(=O)Oc1ccc2c3c1O[C@H]1[C@@H](O)CC[C@@]4(O)[C@@H](C2)N(CC2CCC2)CC[C@]314` [Nalbuphine decanoate] displayed an Aqueous solubility in series [1] of 0.67 µg/mL. Besides, the “time the effective serum concentration lasted” value in series [2] is 4 days. The molecule further gave a logP in series [3] of 3.30.
On to `CCCCCCC(=O)Oc1ccc2c3c1O[C@H]1[C@@H](O)CC[C@@]4(O)[C@@H](C2)N(CC2CCC2)CC[C@]314` [Nalbuphine enanthate], for which, in series [1], the Aqueous solubility was 3.00 µg/mL. The logP in series [3] was 1.94.
`CC(C)(C)C(=O)Oc1ccc2c3c1O[C@H]1[C@@H](O)CC[C@@]4(O)[C@@H](C2)N(CC2CCC2)CC[C@]314` [Nalbuphine pivalate] had an Aqueous solubility in series [1] of 33.67 µg/mL. The “time the effective serum concentration lasted” value in series [2] is 4 days. The same molecule came in with a logP in series [3] of 1.42.
On to `CCC(=O)Oc1ccc2c3c1O[C@H]1[C@@H](O)CC[C@@]4(O)[C@@H](C2)N(CC2CCC2)CC[C@]314` [Nalbuphine propionate], for which, in series [1], the Aqueous solubility was 44.67 µg/mL. For the same molecule, the “time the effective serum concentration lasted” value in series [2] is listed as 4 days. This molecule also had a logP in series [3] of 1.05.
In the case of `O=C(CCCCCCCCC(=O)Oc1ccc2c3c1O[C@H]1[C@@H](O)CC[C@@]4(O)[C@@H](C2)N(CC2CCC2)CC[C@]314)Oc1ccc2c3c1O[C@H]1[C@@H](O)CC[C@@]4(O)[C@@H](C2)N(CC2CCC2)CC[C@]314` [Sebacoyl dinalbuphine ester], the Aqueous solubility in series [1] is below 0.25 µg/mL. The molecule further came in with a logP in series [3] of 3.15.

In general, Aqueous solubility refers to the concentration that dissolves in the medium under given conditions. Low values mean little dissolved substance, high ones much dissolved substance. For orientation: logP means a log measure of how a compound divides between an organic and an aqueous phase. A low value points to lower lipophilicity.
